Experimental data: patent US12655116B2, “Substituted isophthalic acid diamides” (Bayer Aktiengesellschaft, priority 2020, dated 2026)

System: harmful plants
Assay: Comparative experiments: herbicidal post-emergence action versus compounds known from D1 (WO 2012/028579 A1)
Format: in vivo
Set-up: key to Herbicidal action against ALOMY / Herbicidal action against AVEFA / Herbicidal action against LOLRI / Herbicidal action against MATIN / Herbicidal action against HORMU / Herbicidal action against ECHCG / Herbicidal action against SETVI / Herbicidal action against ABUTH / Herbicidal action against STEME / Herbicidal action against VIOTR / Herbicidal action against AMARE: % herbicidal action: 100 = plants died, 0 = like untreated control
Protocol: Seeds of monocotyledonous and dicotyledonous weed and crop plants are laid out in sandy loam soil in wood-fiber pots, covered with soil and cultivated in a greenhouse under good growth conditions. 2 to 3 weeks after sowing, the test plants are treated at the one-leaf stage. The compounds of the invention, formulated in the form of wettable powders (WP) or as emulsion concentrates (EC), are then sprayed onto the green parts of the plants in the form of an aqueous suspension or emulsion at a water application rate equivalent to 600 to 800 l/ha, with addition of 0.2% wetting agent. After the test plants have been left to stand in the greenhouse under optimal growth conditions for about 3 weeks, the action of the preparations is assessed visually in comparison to untreated controls (herbicidal action in percent (%): 100% activity=the plants have died, 0% activity=like control plants). […] The tables below illustrate, in an illustrative manner, the post-emergence herbicidal action of the compounds of the invention, the herbicidal activity being stated in percent. In the experiments that follow, herbicidal action of numerous inventive compounds and the structurally closest compounds known from D1 (WO 2012/028579 A1) were compared under the above-specified conditions by the pre-emergence and post-emergence method. The example numbers given in the tables relate to the compounds disclosed in the respective documents.

Row | Compound | Herbicidal action against ALOMY (5 g a.i./ha) | Herbicidal action against SETVI (5 g a.i./ha) | Herbicidal action against ALOMY (20 g a.i./ha) | Herbicidal action against AVEFA (20 g a.i./ha) | Herbicidal action against MATIN (20 g a.i./ha) | Herbicidal action against PHBPU (20 g a.i./ha) | other results
1 | CCn1nnnc1NC(=O)c1ccc(C(F)(F)F)c(C(=O)NC)c1Cl [Example 2-129] | 100 | 100 | – | – | – | – | Herbicidal action against AMARE (5 g a.i./ha, AMARE): 100; Herbicidal action against AVEFA (5 g a.i./ha): 100; Herbicidal action against HORMU (5 g a.i./ha): 80; Herbicidal action against MATIN (5 g a.i./ha): 80
2 | CNC(=O)c1c(C(F)F)ccc(C(=O)Nc2nnnn2C)c1Cl [Example 1-147] | – | – | 80 | 90 | 100 | 80 | Herbicidal action against POLCO (20 g a.i./ha, POLCO): 90; Herbicidal action against VIOTR (20 g a.i./ha): 70
3 | CCn1nnnc1NC(=O)c1ccc(C(F)F)c(C(=O)NC)c1Cl [Example 2-147] | – | – | 80 | 90 | 100 | 70 | Herbicidal action against HORMU (20 g a.i./ha): 80; Herbicidal action against LOLRI (20 g a.i./ha, LOLRI): 70
4 | CNC(=O)c1c(C(F)(F)F)ccc(C(=O)Nc2nnnn2C)c1Cl [Example 1-129] | 90 | 100 | – | – | – | – | Herbicidal action against ABUTH (5 g a.i./ha, ABUTH): 100; Herbicidal action against ECHCG (5 g a.i./ha, ECHCG): 100; Herbicidal action against STEME (5 g a.i./ha, STEME): 100; Herbicidal action against VIOTR (5 g a.i./ha): 80
